From patent publication US10626144B2, “Peptide derivatives and uses thereof” (Nosopharm, priority 2014, dated 2020)
Numbered stars: 1 amine (or outer) side, 2 acyl side, 3 side chain; on linkers, the order of the positions; unused ones are H or OH. Square brackets hold non-standard residues; d marks the D form. Peptide text beside a SMILES is read from it. * marks the point of attachment. Pro(trans-4-F) = O=C(O)[C@@H]1C[C@@H](F)CN1; Pro(cis-4-F) = O=C(O)[C@@H]1C[C@H](F)CN1; Dab(3S-OH) = NC[C@H](O)[C@H](N)C(=O)O; X4 = N=C(N)NCC/C=C(/N[*:1])C(=O)[*:2]; Ethylenediamine = C(CN[*:2])N[*:1]; ΔZArg = N=C(N)NCC/C=C(\N)C(=O)O; NMeK = CN[C@@H](CCCCN)C(=O)O; dOrn = NCCC[C@@H](N)C(=O)O; Dab = NCC[C@H](N)C(=O)O; NH(CH2)5NH2 = NCCCCCN*; NH(CH2)4NH2 = NCCCCN*

Legend:
Test in all cases: MIC, broth microdilution (CLSI), reference strain
Settings in all cases: CAMHB
[1] = tested on: Acinetobacter baumannii ATCC 19606
[2] = tested on: Escherichia coli ATCC 25922
[3] = tested on: Staphylococcus aureus ATCC 13709
[4] = tested on: Pseudomonas aeruginosa ATCC 27853

| Ab: MIC Acinetobacter baumannii ATCC 19606 [1] | Ec: MIC Escherichia coli ATCC 25922 [2] | Sa: MIC Staphylococcus aureus ATCC 13709 [3] | Pa: MIC Pseudomonas aeruginosa ATCC 27853 [4] | SMILES |
| --- | --- | --- | --- | --- |
| − (>32 μg/mL) | + (≤32 μg/mL) | ++ (≤8 μg/mL) | − (>32 μg/mL) | C[C@H](NC(=O)[C@H](CCN)NC(=O)[C@@H](N)CCCCN)C(=O)NCC(=O)N[C@H](CCCN)C(=O)N1CCC[C@H]1C(=O)N[C@@H](Cc1cnc[nH]1)C(=O)N[C@@H](CCCCN)C(=O)N/C(=C/CCNC(=N)N)C(=O)N[C@@H](CCCCN)C(=O)NCCCCN [14.1] (H-K[Dab]AG[dOrn]PHK[X4]K-{NH(CH2)4NH2}) |
| − (>32 μg/mL) | + (≤32 μg/mL) | ++ (≤8 μg/mL) | − (>32 μg/mL) | C[C@H](NC(=O)[C@H](CCN)NC(=O)[C@@H](N)CCCCN)C(=O)NCC(=O)N[C@H](CCCN)C(=O)N1CCC[C@H]1C(=O)N[C@@H](Cc1cnc[nH]1)C(=O)N[C@@H](CCCCN)C(=O)N/C(=C\CCNC(=N)N)C(=O)N[C@@H](CCCCN)C(=O)NCCCCN [14.2] (H-K[Dab]AG[dOrn]PHK[ΔZArg]K-{NH(CH2)4NH2}) |
| − (>32 μg/mL) | + (≤32 μg/mL) | ++ (≤8 μg/mL) | − (>32 μg/mL) | C[C@H](NC(=O)[C@H](CCN)NC(=O)[C@@H](N)CCCCN)C(=O)NCC(=O)N[C@H](CCCN)C(=O)N1CCC[C@H]1C(=O)N[C@@H](Cc1cnc[nH]1)C(=O)N[C@@H](CCCCN)C(=O)N/C(=C\CCNC(=N)N)C(=O)N[C@@H](CCCCN)C(=O)NCCCCCN [14.5] (H-K[Dab]AG[dOrn]PHK[ΔZArg]K-{NH(CH2)5NH2}) |
| − (>32 μg/mL) | + (≤32 μg/mL) | ++ (≤8 μg/mL) | − (>32 μg/mL) | C[C@H](NC(=O)[C@H](CCN)NC(=O)[C@@H](N)CCCCN)C(=O)NCC(=O)N[C@H](CCCN)C(=O)N1CCC[C@H]1C(=O)N[C@@H](Cc1cnc[nH]1)C(=O)N[C@@H](CCCCN)C(=O)N/C(=C\CCNC(=N)N)C(=O)N[C@@H](CCCCN)C(=O)NCCN [14.6] (H-K[Dab]AG[dOrn]PHK[ΔZArg]K-Ethylenediamine) |
| − (>32 μg/mL) | − (>32 μg/mL) | ++ (≤8 μg/mL) | − (>32 μg/mL) | CN[C@@H](CCCCN)C(=O)N[C@@H](CCN)C(=O)N[C@@H](C)C(=O)NCC(=O)N[C@H](CCCN)C(=O)N1CCC[C@H]1C(=O)N[C@@H](Cc1cnc[nH]1)C(=O)N[C@@H](CCCCN)C(=O)N/C(=C\CCNC(=N)N)C(=O)N[C@@H](CCCCN)C(=O)NCCCCN [14.9] (H-[NMeK][Dab]AG[dOrn]PHK[ΔZArg]K-{NH(CH2)4NH2}) |

Further lines, the molecule ahead of its results:

| SMILES | Ab: MIC Acinetobacter baumannii ATCC 19606 [1] | Ec: MIC Escherichia coli ATCC 25922 [2] | Sa: MIC Staphylococcus aureus ATCC 13709 [3] | Pa: MIC Pseudomonas aeruginosa ATCC 27853 [4] |
| --- | --- | --- | --- | --- |
| N=C(N)NCC/C=C(\NC(=O)[C@H](CCCCN)NC(=O)[C@H](Cc1cnc[nH]1)NC(=O)[C@@H]1CCCN1C(=O)[C@@H](CCCN)NC(=O)CNC(=O)[C@H](CCN)NC(=O)[C@H](CCN)NC(=O)[C@@H](N)CCCCN)C(=O)N[C@@H](CCCCN)C(=O)NCCCCN [11.1] (H-K[Dab][Dab]G[dOrn]PHK[ΔZArg]K-{NH(CH2)4NH2}) | − (>32 μg/mL) | − (>32 μg/mL) | ++ (≤8 μg/mL) | − (>32 μg/mL) |
| N=C(N)NCC/C=C(\NC(=O)[C@H](CCCCN)NC(=O)[C@H](Cc1cnc[nH]1)NC(=O)[C@@H]1CCCN1C(=O)[C@@H](CCCN)NC(=O)CNC(=O)[C@@H](NC(=O)[C@H](CCN)NC(=O)[C@@H](N)CCCCN)[C@@H](O)CN)C(=O)N[C@@H](CCCCN)C(=O)NCCCCN [12.1] (H-K[Dab][Dab(3S-OH)]G[dOrn]PHK[ΔZArg]K-{NH(CH2)4NH2}) | − (>32 μg/mL) | − (>32 μg/mL) | ++ (≤8 μg/mL) | − (>32 μg/mL) |
| N=C(N)NCC/C=C(\NC(=O)[C@H](CCCCN)NC(=O)[C@H](Cc1cnc[nH]1)NC(=O)[C@@H]1CCCN1C(=O)[C@@H](CCCN)NC(=O)CNC(=O)CNC(=O)[C@H](CCN)NC(=O)[C@@H](N)CCCCN)C(=O)N[C@@H](CCCCN)C(=O)NCCCCN [13.1] (H-K[Dab]GG[dOrn]PHK[ΔZArg]K-{NH(CH2)4NH2}) | − (>32 μg/mL) | − (>32 μg/mL) | + (≤32 μg/mL) | − (>32 μg/mL) |
| C[C@H](NC(=O)[C@H](CCN)NC(=O)[C@@H](N)CCCCN)C(=O)NCC(=O)N[C@H](CCCN)C(=O)N1C[C@@H](F)C[C@H]1C(=O)N[C@@H](Cc1cnc[nH]1)C(=O)N[C@@H](CCCCN)C(=O)N/C(=C\CCNC(=N)N)C(=O)N[C@@H](CCCCN)C(=O)NCCCCN [14.4] (H-K[Dab]AG[dOrn][Pro(cis-4-F)]HK[ΔZArg]K-{NH(CH2)4NH2}) | − (>32 μg/mL) | − (>32 μg/mL) | ++ (≤8 μg/mL) | − (>32 μg/mL) |
| C[C@H](NC(=O)[C@H](CCN)NC(=O)[C@@H](N)CCCCN)C(=O)NCC(=O)N[C@H](CCCN)C(=O)N1C[C@H](F)C[C@H]1C(=O)N[C@@H](Cc1cnc[nH]1)C(=O)N[C@@H](CCCCN)C(=O)N/C(=C\CCNC(=N)N)C(=O)N[C@@H](CCCCN)C(=O)NCCCCN [14.7] (H-K[Dab]AG[dOrn][Pro(trans-4-F)]HK[ΔZArg]K-{NH(CH2)4NH2}) | − (>32 μg/mL) | − (>32 μg/mL) | ++ (≤8 μg/mL) | − (>32 μg/mL) |
| C[C@H](NC(=O)[C@@H](NC(=O)[C@@H](N)CCCCN)[C@@H](O)CN)C(=O)NCC(=O)N[C@H](CCCN)C(=O)N1CCC[C@H]1C(=O)N[C@@H](Cc1cnc[nH]1)C(=O)N[C@@H](CCCCN)C(=O)N/C(=C\CCNC(=N)N)C(N)=O [24.5] (H-K[Dab(3S-OH)]AG[dOrn]PHK[ΔZArg]-NH2) | − (>32 μg/mL) | – | – | − (>32 μg/mL) |
| C[C@H](NC(=O)[C@@H](NC(=O)[C@@H](N)CCCCN)[C@@H](O)CN)C(=O)NCC(=O)N[C@H](CCCN)C(=O)N1CCC[C@H]1C(=O)N[C@@H](Cc1cnc[nH]1)C(=O)N[C@@H](CCCCN)C(=O)N/C(=C\CCNC(=N)N)C(N)=O [24.125] (H-K[Dab(3S-OH)]AG[dOrn]PHK[ΔZArg]-NH2) | – | ++ (≤8 μg/mL) | ++ (≤8 μg/mL) | – |
